Results reported in paper PMC6661766, “Antimicrobial, antioxidant and cytotoxic evaluation of diazenyl chalcones along with insights to mechanism of interaction by molecular docking studies” (BMC Chemistry, 2019).
In brackets after ≈: the same amount, converted by molar mass. Like-named read-outs stand apart in the source and are kept apart here.

Legend:
[1] = system: S. typhi; test: Antimicrobial serial tube dilution, MIC and MBC; assay type: cell-based, Salmonella typhi MTCC 3216; details: for MIC / MBC: Salmonella enterica, TYPHI; for MIC: 24 h, read-out: S. typhi MIC; for MBC: read-out: S. typhi MBC; for S. typhi MIC: 24 h at 37 ± 2 °C
Procedure: (§1) The synthesized diazenyl chalcones (C18 to C27) and controls (dyes A and E, and chalcone) were assessed for their antimicrobial activity by estimation of MIC and MBC/MFC values. […] The stock solutions of the test compounds and standard drugs having a concentration of 1000 µg ml^−1 were prepared by dissolving the used compounds in DMSO. The nutrient broth/Sabouraud dextrose broth was used for the serial dilution of the test compounds and referenced drugs for bacterial and fungal cultures, respectively. […] The size of the final inoculum in each test tube was taken as 5 × 10^5 CFU ml^−1. The incubation of the test and standard compounds of varying concentrations was done for 24 h at 37 ± 2 °C (bacterial culture) and for 48 h at 37 ± 2 °C (C. albicans) and for 7 d at 25 ± 2 °C (A. fumigatus). The diazenyl chalcones (C18–C27), were further evaluated for their bactericidal/fungicidal activity by estimation of MBC/MFC values. […] For proper mixing of culture media, the plates were shaken gently followed by incubation at the predefined temperature and time as stated earlier, followed by the visual inspection of the plates for signs of microbial growth.

[2] = system: E. coli; test: Antimicrobial serial tube dilution, MIC and MBC; assay type: cell-based, Escherichia coli MTCC 1652
Procedure: as §1

[3] = system: B. subtilis; test: Antimicrobial serial tube dilution, MIC and MBC; assay type: cell-based, Bacillus subtilis MTCC 2063
Procedure: as §1

[4] = system: S. aureus; test: Antimicrobial serial tube dilution, MIC and MBC; assay type: cell-based, Staphylococcus aureus MTCC 2901
Procedure: as §1

[5] = system: B. cereus; test: Antimicrobial serial tube dilution, MIC and MBC; assay type: cell-based, Bacillus cereus MTCC 1305
Procedure: as §1

[6] = system: A. fumigatus; test: Antimicrobial serial tube dilution, MIC and MFC; assay type: cell-based, Aspergillus fumigatus MTCC 2584; details: for A. fumigatus MIC: 7 d at 25 ± 2 °C
Procedure: as §1

[7] = system: C. albicans; test: Antimicrobial serial tube dilution, MIC and MFC; assay type: cell-based, Candida albicans MTCC 227; details: for C. albicans MIC: 48 h at 37 ± 2 °C
Procedure: as §1

[8] = DPPH scavenging antioxidant assay
Procedure: The derivatives (C18–C27) were assessed for their antioxidant potential in the presence of the stable free radical DPPH using ascorbic acid as the standard compound [36, 37]. […] The total volume of 200 µl was used in each well for each concentration of the test and standard drug containing 0.004 µg DPPH. The assay was performed in triplicate at all concentrations of each sample and standard compound. DPPH solutions in methanol at the same concentration without test drugs were used as the control. Each concentration of the sample and standard has a different blank. To minimize evaporation, the plate was covered with the lid and wrapped in aluminium foil and kept in the dark place in order to protect the DPPH radical from degradation by light and left for 30 min. After 30 min of incubation, the plate was kept in ELISA reader to measure the absorbance values at 517 nm. The experiment was performed in triplicate. The antioxidant activity of each sample was then calculated as per cent inhibition of DPPH according to the following equation: %decolourationofDPPH=ControlAbs-SampleAbs×100/ControlAbs

[9] = Escherichia coli; 24 h at 37 ± 2 °C; read-out: E. coli MIC
[10] = Bacillus subtilis, read-out: B. subtilis MBC
[11] = Staphylococcus aureus; 24 h at 37 ± 2 °C; read-out: S. aureus MIC
[12] = Staphylococcus aureus; read-out: S. aureus MBC
[13] = Bacillus cereus; read-out: B. cereus MBC
[14] = Escherichia coli, read-out: E. coli MBC
[15] = Bacillus subtilis, 24 h, read-out: B. subtilis MIC
[16] = Bacillus cereus, 24 h, read-out: B. cereus MIC

For `CC1=C(C(=O)O)N2C(=O)[C@@H](NC(=O)[C@H](N)c3ccc(O)cc3)[C@H]2SC1` [Cefadroxil, cefadroxil, reference compound], the MIC [1] was 125 µg/mL (≈ 344 µM), the MBC [1] was 125 µg/mL (≈ 344 µM) and the MIC [2, 9] was 31.2 µg/mL (≈ 86 µM). The MBC ([2]; Escherichia coli; read-out: E. coli MBC) was 31.2 µg/mL (≈ 86 µM), the MBC [3, 10] was 125 µg/mL (≈ 344 µM) and the MIC ([3]; Bacillus subtilis; 24 h at 37 ± 2 °C; read-out: B. subtilis MIC) was 62.5 µg/mL (≈ 172 µM). The MIC [4, 11] was 15.6 µg/mL (≈ 43 µM), the MBC [4, 12] was 31.2 µg/mL (≈ 86 µM) and the MIC ([5]; Bacillus cereus; 24 h at 37 ± 2 °C; read-out: B. cereus MIC) was 31.2 µg/mL (≈ 86 µM). It also gave an MBC [5, 13] of 31.2 µg/mL (≈ 86 µM).

In the case of `O=C(/C=C/c1ccc(Cl)cc1Cl)c1ccc(O)c(N=Nc2cccc(Cl)c2Cl)c1` [Compound C-18, (2E)-3-(2,4-Dichlorophenyl)-1-(3-((2,3-dichlorophenyl)diazenyl)-4-hydroxyphenyl)prop-2-en-1-one], the MIC [1] is reported as 31.2 µg/mL (≈ 67 µM), the MBC [1] is reported as 125 µg/mL (≈ 268 µM) and the MIC ([6]; Aspergillus fumigatus, 168 h, read-out: A. fumigatus MIC) is reported as 125 µg/mL (≈ 268 µM). The MFC ([6]; Aspergillus fumigatus, read-out: A. fumigatus MFC) was 125 µg/mL (≈ 268 µM), the “E. coli MIC” value ([2]; 24 h at 37 ± 2 °C) was 15.62 µg/mL and the MIC ([2]; Escherichia coli, 24 h, read-out: E. coli MIC, 24 h at 37 ± 2 °C) was 7.81 to 15.6 µg/mL (≈ 16.8 to 33.5 µM). For the same compound, the MBC [2, 14] was 62.5 µg/mL (≈ 134 µM), the MIC [3, 15] was 125 µg/mL (≈ 268 µM) and the MBC [3, 10] was 125 µg/mL (≈ 268 µM). It also gave a melting point of 110 to 112 °C, an MIC ([7]; Candida albicans, 48 h, read-out: C. albicans MIC) of 125 µg/mL (≈ 268 µM) and an MFC ([7]; Candida albicans, read-out: C. albicans MFC) of 125 µg/mL (≈ 268 µM). It also gave an MIC ([4]; Staphylococcus aureus, 24 h, read-out: S. aureus MIC) of 31.2 µg/mL (≈ 67 µM), an MBC ([4]; Staphylococcus aureus, read-out: S. aureus MBC) of 125 µg/mL (≈ 268 µM) and an MIC [5, 16] of 31.2 µg/mL (≈ 67 µM). For the same compound, the MBC ([5]; Bacillus cereus, read-out: B. cereus MBC) was 125 µg/mL (≈ 268 µM), the “IC50 DPPH” value [8] was over 100 µg/mL and the “% inhibition of DPPH” value ([8]; 1.56 µg ml^−1) was 7.21%. The “% inhibition of DPPH” value ([8]; 3.12 µg ml^−1) was 8.76%, the “% inhibition of DPPH” value ([8]; 6.25 µg ml^−1) was 9.37% and the “% inhibition of DPPH” value ([8]; 12.5 µg ml^−1) was 12.35%. For the same compound, the “% inhibition of DPPH” value ([8]; 25 µg ml^−1) was 15.68%, the “% inhibition of DPPH” value ([8]; 50 µg ml^−1) was 21.79% and the “% inhibition of DPPH” value ([8]; 100 µg ml^−1) was 31.98%.

For `O=C(/C=C\c1cccc(Br)c1)c1cccc(N=Nc2cc(Cl)ccc2Cl)c1O` [Compound C-26, (2Z)-3-(3-Bromophenyl)-1-(3-((2,5-dichlorophenyl)diazenyl)-2-hydroxyphenyl)prop-2-en-1-one], the “S. typhi MBC” value [1] was 62.5 µg/mL, the “S. typhi MIC” value [1] was 15.62 µg/mL and the “A. fumigatus MFC” value [6] was 125 µg/mL. The “A. fumigatus MIC” value [6] was 125 µg/mL, the “E. coli MBC” value [2] was 125 µg/mL and the “E. coli MIC” value ([2]; 24 h at 37 ± 2 °C) was 62.5 µg/mL. For the same compound, the “B. subtilis MBC” value [3] was 62.5 µg/mL, the “B. subtilis MIC” value ([3]; 24 h at 37 ± 2 °C) was 62.5 µg/mL and the “C. albicans MFC” value [7] was 125 µg/mL. The “C. albicans MIC” value [7] was 125 µg/mL, the “S. aureus MBC” value [4] was 31.25 µg/mL and the “S. aureus MIC” value ([4]; 24 h at 37 ± 2 °C) was 7.81 µg/mL. The “B. cereus MBC” value [5] was 250 µg/mL, the “B. cereus MIC” value ([5]; 24 h at 37 ± 2 °C) was 250 µg/mL and the “% inhibition of DPPH” value ([8]; 1.56 µg ml^−1) was 5.72%. For the same compound, the “% inhibition of DPPH” value ([8]; 3.12 µg ml^−1) was 7.91%, the “% inhibition of DPPH” value ([8]; 6.25 µg ml^−1) was 11.90% and the “% inhibition of DPPH” value ([8]; 12.5 µg ml^−1) was 14.04%. The “% inhibition of DPPH” value ([8]; 25 µg ml^−1) was 21.98%, the “% inhibition of DPPH” value ([8]; 50 µg ml^−1) was 24.65% and the “% inhibition of DPPH” value ([8]; 100 µg ml^−1) was 29.62%. The “log IC50 DPPH” value ([8]; Fig. 1) was 1.349.

With `O=C(O)c1cn(C2CC2)c2cc(N3CCNCC3)c(F)cc2c1=O` [CIP, ciprofloxacin, reference compound] the MIC [1] was 7.81 µg/mL (≈ 23.6 µM), the MBC [1] was 7.81 µg/mL (≈ 23.6 µM) and the MBC [2, 14] was 7.81 µg/mL (≈ 23.6 µM). For the same compound, the MIC [2, 9] was 3.9 µg/mL (≈ 11.8 µM), the MIC [3, 15] was 7.81 µg/mL (≈ 23.6 µM) and the MBC ([3]; Bacillus subtilis; read-out: B. subtilis MBC) was 15.6 µg/mL (≈ 47.1 µM). For the same compound, the MIC [4, 11] was 1.95 µg/mL (≈ 5.89 µM), the MBC [4, 12] was 3.9 µg/mL (≈ 11.8 µM) and the MIC [5, 16] was 7.81 µg/mL (≈ 23.6 µM). For the same compound, the MBC [5, 13] was 15.6 µg/mL (≈ 47.1 µM).

In the case of `O=C(/C=C/c1ccc(Cl)cc1Cl)c1ccc(O)cc1` [Chalcone, (E)-3-(2,4-dichlorophenyl)-1-(4-hydroxyphenyl)prop-2-en-1-one], the “S. typhi MBC” value [1] is reported as 62.5 µg/mL, the “S. typhi MIC” value [1] is reported as 31.25 µg/mL and the “A. fumigatus MFC” value [6] is reported as 125 µg/mL. The “A. fumigatus MIC” value [6] was 125 µg/mL, the “E. coli MBC” value [2] was 31.25 µg/mL and the “E. coli MIC” value ([2]; 24 h at 37 ± 2 °C) was 15.62 µg/mL. The “B. subtilis MBC” value [3] was 62.5 µg/mL, the “B. subtilis MIC” value ([3]; 24 h at 37 ± 2 °C) was 62.5 µg/mL and the “C. albicans MFC” value [7] was 125 µg/mL. The “C. albicans MIC” value [7] was 125 µg/mL, the “S. aureus MBC” value [4] was 62.5 µg/mL and the “S. aureus MIC” value ([4]; 24 h at 37 ± 2 °C) was 31.25 µg/mL. The “B. cereus MBC” value [5] was 62.5 µg/mL, the “B. cereus MIC” value ([5]; 24 h at 37 ± 2 °C) was 62.5 µg/mL and the “IC50 DPPH” value [8] was 76.77 µg/mL (≈ 262 µM). For the same compound, the “% inhibition of DPPH” value ([8]; 1.56 µg ml^−1) was 6.54%, the “% inhibition of DPPH” value ([8]; 3.12 µg ml^−1) was 8.12% and the “% inhibition of DPPH” value ([8]; 6.25 µg ml^−1) was 10.76%. The “% inhibition of DPPH” value ([8]; 12.5 µg ml^−1) was 16.90%, the “% inhibition of DPPH” value ([8]; 25 µg ml^−1) was 21.57% and the “% inhibition of DPPH” value ([8]; 50 µg ml^−1) was 34.56%. For the same compound, the “% inhibition of DPPH” value ([8]; 100 µg ml^−1) was 51.80%.
